Measured values reported in DBAASP.
Converted amounts (≈) assume the structure as drawn. “And” between values parts separate entries of the source, which are not always exact repeats. Equal values may be shown once.

How the values were obtained:
Assay in all cases: ≥ marks a high value that may be exact or a test limit, other limits are often not marked, values filed in µg/mL are converted to µM
[1] = system: Pseudomonas aeruginosa CCARM 2095
[2] = system: Escherichia coli KCTC 1682
[3] = system: Pseudomonas aeruginosa KCTC 1637
[4] = system: Staphylococcus epidermidis KCTC 1917
[5] = system: Staphylococcus aureus CCARM 3543
[6] = system: Pseudomonas aeruginosa CCARM 2109
[7] = system: Bacillus subtilis KCTC 3068
[8] = system: Salmonella typhimurium KCTC 1926
[9] = system: Staphylococcus aureus CCARM 3001
[10] = system: Staphylococcus aureus KCTC 1621
[11] = system: Bacillus anthracis Sterne 34F2
[12] = system: Burkholderia thailandensis
Escherichia coli K91BK = system: Escherichia coli K91BK
[13] = system: Bacillus subtilis var. niger ATCC 9372
Bacillus megaterium = system: Bacillus megaterium
Escherichia coli ML-35 = system: Escherichia coli ML-35
[14] = system: Staphylococcus aureus ATCC 25923
[15] = system: Salmonella enterica subsp. enterica serovar Typhimurium ATCC 14028
[16] = system: Pseudomonas aeruginosa ATCC 27853
[17] = system: Escherichia coli ATCC 25922
[18] = system: Mycobacterium tuberculosis FYX
[19] = system: Mycobacterium tuberculosis WXY
[20] = system: Mycobacterium tuberculosis
[21] = system: Mycobacterium tuberculosis H37Rv
[22] = system: Mycobacterium tuberculosis CAS3
[23] = system: Staphylococcus aureus CCARM 3090
[24] = system: Enterococcus faecium ATCC 51559
[25] = system: Staphylococcus aureus CCARM 3095

CC(C)C[C@H](NC(=O)[C@H](CC(C)C)NC(=O)[C@H](Cc1c[nH]c2ccccc12)NC(=O)[C@H](CCCCN)NC(=O)[C@H](CC(C)C)NC(=O)[C@H](Cc1c[nH]c2ccccc12)NC(=O)[C@H](CC(C)C)NC(=O)[C@H](CCCCN)NC(=O)[C@H](Cc1c[nH]c2ccccc12)NC(=O)[C@H](CC(C)C)NC(=O)[C@@H](N)CCCCN)C(N)=O [KLWKLWLKWLL]
MIC [1]: 8 µM (≈ 12.2 µg/mL)
MIC [2]: 8 µM (≈ 12.2 µg/mL)
MIC [3]: 8 µM (≈ 12.2 µg/mL)
MIC [4]: 8 µM (≈ 12.2 µg/mL)
MIC [5]: 4 µM (≈ 6.1 µg/mL)
MIC [6]: 16 µM (≈ 24.4 µg/mL)
MIC [7]: 8 µM (≈ 12.2 µg/mL)
MIC [8]: 4 µM (≈ 6.1 µg/mL)
MIC [9]: 4 µM (≈ 6.1 µg/mL)
MIC [10]: 4 µM (≈ 6.1 µg/mL)

CC[C@H](C)[C@H](NC(=O)[C@H](CCCCN)NC(=O)[C@H](CCCN=C(N)N)NC(=O)CNC(=O)[C@H](CC(C)C)NC(=O)[C@H](CCCN=C(N)N)NC(=O)[C@H](CCCN=C(N)N)NC(=O)[C@H](CC(C)C)NC(=O)CNC(=O)[C@H](CCCN=C(N)N)NC(C)=O)C(=O)N[C@@H](C)C(=O)N[C@@H](Cc1cnc[nH]1)C(=O)NCC(=O)N[C@H](C(=O)N[C@@H](CCCCN)C(=O)N[C@@H](CCCCN)C(=O)N[C@@H](Cc1ccc(O)cc1)C(=O)NCC(=O)N1CCC[C@H]1C(=O)N[C@H](C(=O)N[C@H](C(=O)N[C@@H](CC(C)C)C(=O)N[C@@H](CCCN=C(N)N)C(=O)N[C@H](C(=O)N[C@H](C(=O)N[C@@H](CCCN=C(N)N)C(=O)N[C@H](C(=O)N[C@@H](C)C(=O)N[C@H](C(N)=O)[C@@H](C)O)[C@@H](C)O)[C@@H](C)CC)[C@@H](C)CC)C(C)C)[C@@H](C)O)C(C)C [RGLRRLGRKIAHGVKKYGPTVLRIIRTAT]
MIC [11]: 2.51 µM (≈ 8.36 µg/mL)
MIC [12]: ≥ 100 µM
MIC (Escherichia coli K91BK): ≥ 36.1 µM
MIC [13]: 3.13 µM (≈ 10.4 µg/mL)

CC[C@H](C)[C@H](NC(=O)[C@H](CCCCN)NC(=O)[C@H](CCCCN)NC(=O)[C@H](CC(C)C)NC(=O)[C@H](C)NC(=O)[C@H](CCC(=O)O)NC(=O)[C@H](CCCCN)NC(=O)[C@@H](NC(=O)[C@H](CCCCN)NC(=O)[C@H](CC(N)=O)NC(=O)[C@H](CCCN=C(N)N)NC(=O)[C@H](Cc1ccccc1)NC(=O)[C@H](CCCCN)NC(=O)[C@H](CCCN=C(N)N)NC(=O)[C@H](CC(C)C)NC(=O)[C@H](C)NC(=O)[C@H](CCCCN)NC(=O)[C@H](CCCN=C(N)N)NC(=O)[C@H](CC(C)C)NC(=O)CN)[C@@H](C)CC)C(=O)O [GLRKALRKFRNKIKEALKKI]
MIC (Bacillus megaterium): 2 µM (≈ 4.82 µg/mL)
MIC (Escherichia coli ML-35): 0.5 µM (≈ 1.21 µg/mL)
MIC [14]: 2 µM (≈ 4.82 µg/mL)
MIC [15]: 0.5 µM (≈ 1.21 µg/mL)
MIC [16]: 2 µM (≈ 4.82 µg/mL)
MIC [17]: 2 µM (≈ 4.82 µg/mL)

CC(C)C[C@H](NC(=O)[C@H](CCCCN)NC(=O)[C@H](CCCCN)NC(=O)[C@H](CO)NC(=O)[C@H](Cc1ccccc1)NC(=O)[C@H](CCCCN)NC(=O)CNC(=O)[C@@H]1CCCN1C(=O)CNC(=O)[C@H](CCCCN)NC(=O)[C@H](CC(C)C)NC(=O)CNC(=O)[C@H](CCCCN)NC(=O)[C@H](CC(C)C)NC(=O)CNC(=O)[C@H](Cc1c[nH]c2ccccc12)NC(=O)[C@@H](N)Cc1ccccc1)C(=O)O [FWGLKGLKGPGKFSKKL]
MIC [18]: 19.8 µM (≈ 37.5 µg/mL)
MIC [19]: ≥ 39.7 µM
MIC [20]: 14.8 µM (≈ 28 µg/mL)
MIC [17]: > 25 µM
MIC [21]: 11.6 µM and 19.8 µM
MIC [22]: ≥ 39.7 µM

CC[C@H](C)[C@H](NC(=O)[C@H](CC(C)C)NC(=O)[C@H](CCCCN)NC(=O)[C@@H](NC(=O)[C@@H](NC(=O)[C@H](CCCN=C(N)N)NC(=O)[C@@H](N)CCCCN)[C@@H](C)CC)C(C)C)C(=O)N[C@@H](CCCCN)C(=O)N[C@@H](CCCCN)C(=O)N[C@@H](Cc1c[nH]c2ccccc12)C(=O)N[C@@H](CC(C)C)C(=O)N[C@@H](CCCN=C(N)N)C(N)=O [KRIVKLIKKWLR]
MIC [1]: 4 µM (≈ 6.32 µg/mL)
MIC [3]: 4 µM and 8 µM
MIC [23]: ≥ 64 µM
MIC [6]: ≥ 64 µM
MIC [7]: 8 µM and 4 µM
MIC [24]: ≥ 64 µM
MIC [25]: ≥ 64 µM
